Data on five compounds can be found in article PMC3828642 (AoB Plants, 2013).

Each structure is given as a SMILES string.

Common to all, as to format: biochemical
Assay [1] deals with T1, 1-aminocyclopropane-1-carboxylic acid oxidase (ACCO1) (Malus domestica, UniProt Q00985). The assay can be described thus: steady-state kinetics, competitive activation (Ka), double reciprocal plot. On the set-up: purified recombinant ACCO.
For assay [2], the target named is T1, 1-aminocyclopropane-1-carboxylic acid oxidase (ACCO1). Put plainly: steady-state kinetics, ethylene assay by GC. On the set-up: purified ACCO fusion protein.
The target is the same in assay [3]. Put plainly: steady-state kinetics (data not shown).
Assay [4] has the same target. Put plainly: steady-state kinetics, ethylene assay by GC, double reciprocal plot; UV/Vis spectrum. On the set-up: His-Tag fusion protein expressed in E. coli.

T1 sequence (Q00985 whole entry, the tested form may be a part): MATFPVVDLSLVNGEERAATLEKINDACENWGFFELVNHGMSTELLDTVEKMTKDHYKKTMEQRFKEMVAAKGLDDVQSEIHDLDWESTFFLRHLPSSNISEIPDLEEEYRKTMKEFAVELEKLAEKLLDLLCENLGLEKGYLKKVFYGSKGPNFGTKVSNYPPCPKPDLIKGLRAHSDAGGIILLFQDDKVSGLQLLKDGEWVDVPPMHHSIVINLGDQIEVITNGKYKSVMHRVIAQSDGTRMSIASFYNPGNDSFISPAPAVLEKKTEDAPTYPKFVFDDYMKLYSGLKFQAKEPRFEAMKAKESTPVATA

On to `O=c1[nH]c(=O)c2nccnc2[nH]1` [2,4-pteridinediol], for which the “steady-state kinetics, competitive activation (Ka), double reciprocal plot” value in assay [1] is 2.2 mM. Broadly, the Ki is a dissociation constant, usually derived from enzyme kinetics or from competition with a known ligand. A low value points to a stronger hold on the target. For the compound `O=C(O)[C@@H](O)[C@H]1OC(=O)[C@H](O)[C@H]1O` [D-Saccharic acid 1,4-lactone], the affinity in assay [2] corresponds to a Ki of 300 µM. Compound `O=C(O)CC(=O)O` [Malonic acid] displayed a Ki in assay [3] of 70 µM.

`O=C(O)CC(=O)C(=O)O` [Oxaloacetic acid] gave a Ki in assay [3] of 930 µM. `Cc1ncc(COP(=O)(O)O)c(C=O)c1O` [Pyridoxal-5′-phosphate] showed a Ki in assay [4] of 200 µM.
